≈ marks a conversion by molar mass, not a printed value. Where a SMILES comes first, the peptide text is derived from it. Where no end group is shown, it is not given here. The star is where a group is joined. Octanoyl = CCCCCCCC(=O)*
Legend:
[1] = RP-HPLC adjusted retention time as measure of hydrophobicity; type: physicochemical; settings: chromatographic, Phenomenex Gemini-NX C18 4.6 × 150 mm, linear gradient 10–100% B (0.1% TFA in ACN) in A (0.1% aqueous TFA) over 10 min, 25 °C, 0.5 mL/min, UV 214 nm; used as hydrophobicity measure
Description: The identity of the purified peptides was confirmed using electrospray ionization mass spectrometry (ESI-MS) in positive ion mode and the results are shown in Table S1 (Supplementary Materials).
The conjugation of KR12-NH2 with aliphatic and aromatic acids affords more hydrophobic compounds than the parent molecule, but it depends on the modified amino group involved. The conjugation of C8 to N^α amino group of the N-terminal amino acid gives a more distinct increase in hydrophobicity than that of C8 in the sidechain of lysine residues (i.e., II vs. III; IV vs. V). […] Moreover, in the acidic conditions of the mobile phase (0.1% TFA; pH 2,) both amino groups are protonated. Hypothetically, the acylation of the N^α-amino group disrupts the helix macrodipole and eliminates excessive positive charge. The dipole moment and positive charge can obviously contribute to peptide hydrophilicity. This phenomenon applies exclusively to the N^α-amino group, but not so much to N^ε. […]
Finally, the peptides were purified with solid-phase extraction (SPE) on Isolute ^TM SPE columns (flash, C18, 25 mL). The eluates were fractionated, and the purity of the peptides was determined on a Varian ProStar HPLC system controlled by a Galaxie Chromatography Data System with a Phenomenex Gemini-NX C18 column (4.6 × 150 mm, 110 Å pore size, 5 µm particle size). […]

[2] = system: Enterococcus faecium ATCC 700221; type: cell-based; settings: ATCC 700221, 18 h
Method in brief: (§1)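 Broth microdilution (CLSI), Mueller–Hinton broth; 0.5 × 10^5 CFU/mL inoculum; peptides 1–512 µg/mL; 18 h, 37 °C. MIC = lowest conc. with no visible growth. Triplicate.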

[3] = system: Klebsiella aerogenes ATCC 13048; type: cell-based; settings: ATCC 13048, 18 h
Method in brief: as §1

[4] = system: Klebsiella pneumoniae ATCC 700603; type: cell-based; settings: ATCC 700603, 18 h
Method in brief: as §1

[5] = system: Pseudomonas aeruginosa ATCC 9027; type: cell-based; settings: ATCC 9027, 18 h
Method in brief: as §1

S. aureus ATCC 12598 = type: cell-based, Staphylococcus aureus; settings: ATCC 12598, 18 h
Method in brief: as §1

S. aureus ATCC 25923 = type: cell-based, Staphylococcus aureus; settings: ATCC 25923, 18 h
Method in brief: as §1

[6] = system: S. aureus ATCC 33591 (MRSA); type: cell-based, Staphylococcus aureus; settings: ATCC 33591, 18 h
Method in brief: as §1

S. aureus ATCC 6538 = type: cell-based, Staphylococcus aureus; settings: ATCC 6538, 18 h
Method in brief: as §1

S. aureus ATCC 9144 = type: cell-based, Staphylococcus aureus; settings: ATCC 9144, 18 h
Method in brief: as §1

[7] = system: reference strains of Staphylococcus aureus; assay: MIC over the five reference strains of S. aureus (geometric mean, range, selectivity); type: cell-based; settings: MIC values of Table 3
Description: Selectivity indexes were calculated based on the MHC5 and geometric mean (GM) of MIC values against S. aureus strains.
Tests of the antibacterial activity were carried out as we just described. Briefly, for assays, the following strains of ESKAPE bacteria were chosen: Acinetobacter baumannii ATCC BAA-1605, Enterococcus faecium ATCC 700221, Klebsiella aerogenes ATCC 13048 (formerly Enterobacter aerogenes), Klebsiella pneumoniae ATCC 700603, and Pseudomonas aeruginosa ATCC 9027. Moreover, the reference strains of Staphylococcus aureus were used: S. aureus ATCC 25923, S. aureus ATCC 6538, S. aureus ATCC 33591 (MRSA), S. aureus ATCC 9144, and S. aureus ATCC 12598. Before experiments, all the strains were stored at −80 °C in Roti®-Store cryo vials (Carl Roth GmbH, Karlsruhe, Germany). To evaluate the activity of the compounds, bacteria were transferred into fresh Mueller–Hinton medium (Becton Dickinson, Warszawa, Poland) and incubated for 24 h at 37 °C. In the next step, bacterial inoculums were seeded on Mueller–Hinton agar plates (BioMaxima SA, Lublin, Poland) and incubated again for 24 h. The MIC values were determined using the broth microdilution method according to the Clinical and Laboratory Standards Institute Protocol. […] The results were read after incubation for 18 h at 37 °C. […]

[8] = 18 h
[9] = system: human red blood cells (hRBCs); assay: Hemolysis assay; settings: 4% (v/v) erythrocytes in PBS, peptides 1–512 µg/mL, 1 h at 37 °C, hemoglobin at 540 nm, 100% = 1% Triton-X 100; ≥ means less than 5% hemolysis up to 512 µg/mL
Description: To facilitate a comparison of hemolytic activity between the analogs, MHC5 values were determined. MHC5 is the minimum hemolytic concentration of the compounds that caused the 5% hemolysis of hRBCs.
Briefly, the fresh hRBCs with EDTA as anticoagulant were rinsed three times with PBS through centrifugation at 800× g for 10 min and resuspended in PBS. The serial dilution of peptides (1–512 µg/mL) was prepared in PBS on 96-well plates. Then, the stock RBCs solution was added to the plates to reach a final volume of 100 µL with a 4% concentration of erythrocytes (v/v). The control wells for 0 (RBCs in PBS) and 100% (RBCs in 1% Triton-X 100) hemolysis were also prepared. Then, the plates were incubated for 1 h at 37 °C and centrifuged at 800× g for 10 min at 4 °C (Sorvall ST 16R Centrifuge, Thermo Scientific, Waltham, MA, USA). After centrifugation, the supernatant was carefully transferred to new microtiter plates and the release of hemoglobin was measured at 540 nm (Multiskan™ GO Microplate Spectrophotometer, Thermo Scientific, Waltham, MA, USA). The percentage of hemolysis was calculated based on wells with 100% hemolysis.

| Compound | HPLC tR (adjusted retention time, t'R) [1] | MIC E. faecium [2] | MIC K. aerogenes [3] | MIC K. pneumoniae [4] | MIC P. aeruginosa [5] | MIC S. aureus 12598 (S. aureus ATCC 12598) | MIC S. aureus 25923 (S. aureus ATCC 25923) | MIC S. aureus 33591 [6] | MIC S. aureus 6538 (S. aureus ATCC 6538) | MIC S. aureus 9144 (S. aureus ATCC 9144) | GM (geometric mean of the MIC values against S. aureus) [7] | MIC A. baumannii [8] | MHC5 (minimum hemolytic concentration causing 5% hemolysis of hRBCs) [9] |
| --- | --- | --- | --- | --- | --- | --- | --- | --- | --- | --- | --- | --- | --- |
| CCCCCCCC(=O)NCCCC[C@H](NC(=O)[C@H](CCCNC(=N)N)NC(=O)[C@@H](NC(=O)[C@@H](NC(=O)[C@H](CCC(N)=O)NC(=O)[C@H](CCCNC(=N)N)NC(=O)[C@@H](NC(=O)[C@H](CCCCN)NC(=O)[C@H](CC(=O)O)NC(=O)[C@H](Cc1ccccc1)NC(=O)[C@H](CC(C)C)NC(=O)[C@@H](N)CCCNC(=N)N)[C@@H](C)CC)C(C)C)[C@@H](C)CC)C(N)=O [XI, retro-KR12-C8^ε-NH2] (H-RLFDKIRQVIRK(Octanoyl)-NH2) | 5.05 min | 32 µg/mL (≈ 18.9 µM) | 512 µg/mL (≈ 302 µM) | 512 µg/mL (≈ 302 µM) | 128 µg/mL (≈ 75.4 µM) | 512 µg/mL (≈ 302 µM) | 128 µg/mL (≈ 75.4 µM) | 512 µg/mL (≈ 302 µM) | 16 µg/mL (≈ 9.43 µM) | 256 µg/mL (≈ 151 µM) | 168.9 | 64 µg/mL (≈ 37.7 µM) | – |
| KRIVQRIKDFLR-NH2 [I, KR12-NH2] | – | 128 µg/mL | >512 µg/mL | >512 µg/mL | 128 µg/mL | >512 µg/mL | >512 µg/mL | >512 µg/mL | 512 µg/mL | >512 µg/mL | – | 256 µg/mL | ≥512 µg/mL |

From article PMC10053710, “Influence of Lipidation Pattern of the KR12 Fragment of Peptide LL-37 on Its Antibacterial and Hemolytic Activities” (International Journal of Molecular Sciences, 2023)
